Test results taken from patent US11666598B2 (priority 2019, dated 2023).

Columns and labels:
[1] = test system: murine bone marrow derived macrophages (BMDM); experiment: Cytokine quantification in stimulated bone marrow derived macrophages; format: cell-based, C57BL/6 mice; settings: 12 hr pretreatment, then LPS or LPS+IFNγ 12 hr; vs PLGA and insert free controls
Experimental: For experiments, cells were seeded at 90 000 cells cm^−2 in 6 well culture plates. […] Unstimulated cells treated with identical groups were used as a negative control.
Cytokine quantification was conducted on cell supernatants using a mouse 10-plex pro-inflammatory assay or an interferon beta single plex assay (Eve Technologies, Calgary, AB) and calculated using their standard curve. Nitrite content was determined using a Greiss Reagent Kit.

Escherichia coli (BL21) = experiment: In vitro E. coli bacterial growth assessment (optical density 600 nm); format: cell-based; settings: soluble; rich media (LB broth)
Experimental: Escherichia coli (BL21) was expanded overnight in LB broth, then seeded (1:100) in fresh medium according to growth conditions. Experiments were carried out in modified M9 minimal medium supplemented with appropriate carbon source (Acetate: 1%, Glucose 0.4%) or LB broth (Lennox). Time course assessment of soluble small molecule inhibition was conducted in 96-well culture plates fitted with a breathable film to encourage aeration and cultured for indicated time with incremental optical density measurement (600 nm). Growth media containing solubilized acid was neutralized with sodium hydroxide (pH=7.0).
To determine polymer antimicrobial properties in solution, six well plates were cast with equal mass polymer samples and polymer free culture plate (polystyrene) controls. […] Silver nanoparticles (10 nm) and PLLA (Mn=85-110 kDa, Sigma) were used as positive and negative controls respectively. Soluble assessment of DMI was conducted using the method described for polymer samples using a 12 well plate format (1.5 mL/well).

isocitrate lyase (ICL) = settings: under glucose deprived conditions; cited from earlier work

For `C=C(CC(=O)OC)C(=O)OC` [DMI, dimethyl itaconate], which IL-6 [1] is on record?
Its IL-6 is “marked”.

What about the “concentration showing sensitivity on rich media” value (Escherichia coli (BL21)) of the same compound?
Its value is over 7.5 mM.

Which “inhibition of isocitrate lyase (ICL)” value (isocitrate lyase (ICL)) does the source give for `C=C(CC(=O)O)C(=O)O` [ITA, itaconic acid] here?
The value was “potent inhibitor”.
